From patent US7273848B2, “Apolipoprotein A-I agonists and their use to treat dyslipidemic disorders” (priority 1997, dated 2007)
No end group written: not given here.

Columns and labels:
[1] = molecular target: T1, LCAT (purified from human plasma) (Homo sapiens, UniProt P04180); assay: LCAT activation assay; type: biochemical; conditions: LCAT activation as compared with native human ApoA-I (= 100%), equivalent masses
T1 construct: from tissue; host or cells: human plasma
T1 sequence (P04180 25-440): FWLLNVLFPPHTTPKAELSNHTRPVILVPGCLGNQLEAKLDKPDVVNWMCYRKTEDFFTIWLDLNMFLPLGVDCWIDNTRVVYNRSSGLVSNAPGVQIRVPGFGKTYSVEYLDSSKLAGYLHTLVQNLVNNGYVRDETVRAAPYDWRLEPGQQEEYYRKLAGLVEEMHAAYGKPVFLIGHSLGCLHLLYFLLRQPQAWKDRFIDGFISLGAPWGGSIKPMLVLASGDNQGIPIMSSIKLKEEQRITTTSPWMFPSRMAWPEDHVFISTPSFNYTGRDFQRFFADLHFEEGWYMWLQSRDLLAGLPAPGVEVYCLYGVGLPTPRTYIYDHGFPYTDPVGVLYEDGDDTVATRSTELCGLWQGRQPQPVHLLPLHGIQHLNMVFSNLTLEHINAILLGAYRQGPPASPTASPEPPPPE
In short: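 Activity was expressed as percentage conversion of radiolabelled cholesterol to cholesteryl ester, normalised to native ApoA-I as 100%. LCAT purified from human plasma was added to peptide-preincubated EPC or POPC/cholesterol (20:1) small unilamellar vesicles at pH 7.4. Specific activity is the peptide concentration reaching the conversion plateau at a fixed timepoint.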

[2] = Circular dichroism helicity determination; type: physicochemical; conditions: percent helicity; for He (%) TFE: 5 μM peptide, 90% vol TFE; for He (%) free: unbound peptide 5 μM in 5 mM phosphate buffer, pH 7.4, 37° C.; for He (%) mics: peptide-micelle complexes, Ri=100, 37° C.
In short: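 Far-UV CD (190–260 nm) at 37° C on 5 μM peptide in 5 mM phosphate pH 7.4, free, with EPC:Chol 20:1 SUVs (Ri 30 or 50), lysophosphatidylcholine micelles (Ri 100) or 90% TFE. Spectra converted to molar ellipticity per residue; helicity from 222 nm ellipticity or CONTIN fitting to reference spectra, ±5%.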

| Sequence | ACTIVITY (%) LCAT [1] | He (%) TFE ([2]; 37° C.) | He (%) free [2] | He (%) SUVs ([2]; peptide-SUV complexes (20:1 EPC:Chol., Ri=30 and Ri=50), 37° C.) | He (%) mics [2] |
| --- | --- | --- | --- | --- | --- |
| PVLELFENLLERLLDALQKKLK [peptide 146] | 86% | 95% | 97% | 100% | 100% |
| PVLELFENLWERLLDALQKKLK [peptide 149] | 63% | 47% | 28% | – | 54% |
